Measured values published in patent EP0600782A1, “C-11 modified pradimicin derivatives” (priority 1992, dated 1994).
Like-named read-outs stand apart in the source and are kept apart here.

Legend:
[1] = tested on: Aspergillus fumigatus IAM 2034; assay: In vitro antifungal activity (MIC), agar dilution method, 11-xylosyl precursors; format: cell-based; details: 10^6 cells/ml, 28°C, 40 hrs
Description: (§1) The in vitro antifungal activities of pradimicins T1 and T2 and 11-0-dexylosylpradimicin T1 were determined by the agar dilution method on yeast morphology agar containing 1/15M phosphate buffer (pH 7.0).

[2] = tested on: Candida albicans 83-2-14 (Juntendo); assay: as above; format: cell-based; details: yeast morphology agar + 1/15M phosphate buffer (pH 7.0), 10^6 cells/ml, 28°C, 40 hrs
Description: as §1

Candida albicans A9540 = assay: as above; format: cell-based; details: yeast morphology agar + 1/15M phosphate buffer (pH 7.0), 10^6 cells/ml, 28°C, 40 hrs
Description: as §1

[3] = tested on: Candida albicans ATCC 32354 (B311); assay: as above; format: cell-based; details: 10^6 cells/ml, 28°C, 40 hrs
Description: as §1

[4] = tested on: Candida albicans ATCC 38247; assay: as above; format: cell-based; details: 10^6 cells/ml, 28°C, 40 hrs
Description: as §1

[5] = tested on: Candida tropicalis 85-8 (Kitasato); assay: as above; format: cell-based; details: yeast morphology agar + 1/15M phosphate buffer (pH 7.0), 10^6 cells/ml, 28°C, 40 hrs
Description: as §1

[6] = tested on: Candida tropicalis IFO 10241; assay: as above; format: cell-based; details: 10^6 cells/ml, 28°C, 40 hrs
Description: as §1

[7] = tested on: Cryptococcus neoformans D49; assay: as above; format: cell-based; details: yeast morphology agar + 1/15M phosphate buffer (pH 7.0), 10^6 cells/ml, 28°C, 40 hrs
Description: as §1

[8] = tested on: Cryptococcus neoformans IAM 4514; assay: as above; format: cell-based; details: 10^6 cells/ml, 28°C, 40 hrs
Description: as §1

[9] = tested on: Saccharomyces cerevisiae ATCC 9763; assay: as above; format: cell-based; details: 10^6 cells/ml, 28°C, 40 hrs
Description: as §1

[10] = tested on: Trichophyton mentagrophytes 4329; assay: as above; format: cell-based; details: yeast morphology agar + 1/15M phosphate buffer (pH 7.0), 10^7 cells/ml, 28°C, 60 hrs
Description: as §1

[11] = tested on: Candida albicans A9540 systemic infection; assay: In vivo efficacy against systemic infection in mice; set-up: species or system male ICR mice; details: for ED50: Candida albicans, iv, 480 h, read-out: PD50; for PD50: C. albicans A9540 systemic infection, male ICR mice, single intravenous dose immediately after challenge, survival rate 20 days after infection
Description: (§2) Pradimicins T1 and T2 were evaluated for in vivo efficacy against a Candida albicans A9540 systemic infection in male ICR mice (20-24 g body weight) as described by Oki et al. in "Water-soluble pradimicin derivatives, synthesis and antifungal evaluation of N,N,-dimethyl pradimicins", J. Antibiotics 43:1230-1235, 1990. Five mice at each dose level were challenged intravenously with ten times the 50% lethal dose of the pathogen suspended in saline. Antibiotics were intravenously administered once immediately after the fungal challenge. Infection control animals (n=10) died from 7 to 12 days. The 50% protective dose (PD₅₀) was calculated from the survival rate 20 days after the fungal infection. The acute toxicity of pradimicins T1 and T2 was determined in mice after a single intravenous dose.

[12] = Acute toxicity in mice after a single intravenous dose; format: in vivo
Description: as §2

[13] = IAM2034, yeast morphology agar + 1/15M phosphate buffer (pH 7.0), read-out: MIC
[14] = ATCC32354, yeast morphology agar + 1/15M phosphate buffer (pH 7.0), read-out: MIC
[15] = ATCC38247, yeast morphology agar + 1/15M phosphate buffer (pH 7.0), read-out: MIC
[16] = IFO10241, yeast morphology agar + 1/15M phosphate buffer (pH 7.0), read-out: MIC
[17] = IAM4514, yeast morphology agar + 1/15M phosphate buffer (pH 7.0), read-out: MIC
[18] = ATCC9763, yeast morphology agar + 1/15M phosphate buffer (pH 7.0), read-out: MIC
[19] = yeast morphology agar + 1/15M phosphate buffer (pH 7.0)

## Cc1cc2c(c(O)c1C(=O)NCC(=O)O)-c1c(cc3c(c1O)C(=O)c1cc(O)cc(O)c1C3=O)[C@H](O)[C@H]2O[C@@H]1O[C@H](C)[C@H](O)[C@H](O[C@@H]2OC[C@@H](O)[C@H](O)[C@H]2O)[C@H]1O [11-O-Dexylosyl-pradimicin T1]
[1]; [13]
  MIC: 25 µg/mL
[2]; read-out: MIC
  MIC: 3.1 µg/mL
Candida albicans A9540; read-out: MIC
  MIC: 6.3 µg/mL
[3]; [14]
  MIC: 3.1 µg/mL
[4]; [15]
  MIC: 3.1 µg/mL
[5]; read-out: MIC
  MIC: 12.5 µg/mL
[6]; [16]
  MIC: 12.5 µg/mL
[7]; read-out: MIC
  MIC: 6.3 µg/mL
[8]; [17]
  MIC: 6.3 µg/mL
[9]; [18]
  MIC: 3.1 µg/mL
[10]; read-out: MIC
  MIC: 12.5 µg/mL

## C[C@@H]1[C@H](O)[C@@H](C)/C=C/C=C/C=C/C=C/C=C/C=C/C=C/[C@H](O[C@@H]2O[C@H](C)[C@@H](O)[C@H](N)[C@@H]2O)C[C@@H]2O[C@](O)(C[C@@H](O)C[C@@H](O)[C@H](O)CC[C@@H](O)C[C@@H](O)CC(=O)O[C@H]1C)C[C@H](O)[C@H]2C(=O)O [Amphotericin B, reference compound]
[11]
  ED50: 0.2 mg/kg
[12]; mouse, in vivo, read-out: LD50
  LD50: 4.5 mg/kg

## CC(=O)N1CCN(c2ccc(OCC3COC(Cn4ccnc4)(c4ccc(Cl)cc4Cl)O3)cc2)CC1 (centres unmarked) [Ketoconazole, reference compound]
[1]; [13]
  MIC: 3.1 µg/mL
Candida albicans A9540; read-out: MIC
  MIC: 50 µg/mL
[3]; [14]
  MIC: 50 µg/mL
[4]; [15]
  MIC: 25 µg/mL
[5]; read-out: MIC
  MIC: 100 µg/mL
[6]; [16]
  MIC: 50 µg/mL
[7]; read-out: MIC
  MIC: 0.8 µg/mL
[8]; [17]
  MIC: 0.4 µg/mL
[9]; [18]
  MIC: 50 µg/mL
[10]; read-out: MIC
  MIC: 0.8 µg/mL
[11]
  ED50: > 50 mg/kg

## Pradimicin T1
[1]; [19]
  MIC: 6.3 µg/mL
[2]
  MIC: 6.3 µg/mL
Candida albicans A9540
  MIC: 6.3 µg/mL
[3]; [19]
  MIC: 6.3 µg/mL
[4]; [19]
  MIC: 1.6 µg/mL
[5]
  MIC: 25 µg/mL
[6]; [19]
  MIC: 12.5 µg/mL
[7]
  MIC: 3.1 µg/mL
[8]; [19]
  MIC: 3.1 µg/mL
[9]; [19]
  MIC: 3.1 µg/mL
[10]
  MIC: 6.3 µg/mL
[11]
  PD50: 27 mg/kg
[12]
  LD50: 300 mg/kg

## Pradimicin T2
[1]; [19]
  MIC: >100 µg/mL
[2]
  MIC: 3.1 µg/mL
Candida albicans A9540
  MIC: 3.1 µg/mL
[3]; [19]
  MIC: 3.1 µg/mL
[4]; [19]
  MIC: 1.6 µg/mL
[5]
  MIC: 6.3 µg/mL
[6]; [19]
  MIC: 6.3 µg/mL
[7]
  MIC: 6.3 µg/mL
[8]; [19]
  MIC: 6.3 µg/mL
[9]; [19]
  MIC: 0.8 µg/mL
[10]
  MIC: 50 µg/mL
[11]
  PD50: >50 mg/kg
[12]
  LD50: >600 mg/kg
